Assay results reported in US10967047B2, “Mitochondrial antiviral-signaling (MAVS) polypeptides and detection and use thereof” (University of Vermont and State Agricultural College, priority 2016, dated 2021).

Legend:
Drp1 = experiment: Phosphorylated Drp1 (Drp1 616p) at purified mitochondria, densitometry normalized to Cox IV; format: cell-based
Procedure: To activate MAVS commercially available 5′-ppp-RNA was used at a concentration of 1 μg/ml, which activates RIG-I helicase. As an alternative GOx was used as previously described [Szeto, H. H., Br J Pharmacol, 2014. 171(8): p. 2029-50]. Mitochondria were purified by anti-Tom22 magnetic beads as previously described [Perl, A., et al., Int Rev Immunol, 2004. 23(3-4): p. 293-313]. Changes in the level of Drp1^616p at mitochondria were determined by densitometry, which was normalized to the level of Cox IV (FIG. 14A-B).

MAVS [1] = experiment: MAVS oligomerization in MEFs (semi-denaturing gel electrophoresis, immunoblot, densitometry); format: cell-based, mouse
Procedure: 5′ triphosphate double-stranded RNA (5′-ppp-dsRNA), a synthetic ligand for RIG-I, was purchased from InVivoGen and used at a concentration of 1 μg/mL. Mitochondria-targeted antioxidant MitoQ and the mitochondria-targeted superoxide generator MitoPQ, were gifts of M. Murphy (G. F. Kelso et al., (2001) The Journal of biological chemistry 276, 4588-4596). The control reagent TPP was purchased from Sigma. Reagents were added to cells at concentrations as indicated. GOx was purchased from Sigma and added to cultured cells at a final concentration of 0.1 U/mL. Iodoacetamide was from Thermo Fisher, and used at a final concentration of 100 μM.
Cultured MEFs or human PBMCs were lysed in a sample buffer containing 2% SDS and insoluble cell fragments were removed by centrifugation. Plasma samples derived from SLE patients were collected and stored at −20° C. until gel electrophoresis. BCA protein assay (Thermo Scientific) was used to determine protein concentrations in all samples were resolved with SDS-PAGE under denaturing conditions. Gels were transferred to PVDF membranes using a Trans-Blot Turbo Transfer System (BioRad).
SDD-AGE was performed according to a published protocol with minor modifications (Alberti et al., (2009) Cell 137, 146-158). In brief, mitochondria were resuspended in sample buffer (0.5×TBE, 10% glycerol, 2% SDS, and 0.0025% bromophenol blue) and loaded onto a vertical 1.5% agarose gel. After electrophoresis in the running buffer (1×TBE and 0.1% SDS) for 35 min with a constant voltage of 75 V at 4° C., proteins were transferred to PVDF membranes using a Trans-Blot Turbo Transfer System (BioRad) for immunoblotting.
PVDF membranes were blocked in 5% solution of nonfat powdered milk in Tris-buffered saline. Antibodies used were specific for MAVS and Actin (Santa Cruz); RIPK1 and TRAF2 (BD Biosciences); TANK, TRADD, RIG-I, and GAPDH (Cell Signaling); MDAS and COX4 (Abcam), Alexa 488 (Life Technologies), and IRF3 (Thermo Fisher), respectively. Immunoreactive proteins were visualized using HRP-labeled conjugates (Jackson Immuno Research) and developed using Clarity Western ECL substrate (Biorad). Chemiluminescence was detected and recorded using a Biorad Chemidoc instrument. Densitometric measurements were performed in Image Lab image acquisition and analysis software (Biorad).

MAVS [2] = experiment: MAVS oligomerization in purified MEF mitochondria, with or without SLE patient-derived MAVS oligomers; set-up: species or system mouse
Procedure: MAVS antibody was covalently coupled to protein G magnetic beads (Life Technologies) using the bi-functional amine-reactive cross-linker disuccinimidyl suberate (DSS; Thermo Scientific). To avoid a sample contamination with proteins or protein complexes that nonspecifically bind to protein G, plasma samples were pre-incubated with protein G magnetic beads without the cross-linked MAVS antibody. SLE patient plasma were incubated for 6 hours, after which the magnetic beads were loaded onto a column in a magnetic field and extensively washed. After the beads were eluted, MAVS-oligomers were released from MAVS-antibody by way of increasing ionic strength buffer, lower pH and gel filtration. Functionally intact mitochondria from cultured cells were isolated as described earlier (S. Schmitt et al., (2013) Analytical biochemistry 443, 66-74). This method comprises a mechanical cell rupture, followed by a precipitation of mitochondria from cell lysates using magnetically labeled anti-TOM22 (Miltenyi Biotec) antibody. […] The reaction mixtures were centrifuged at 10,000×g for 10 min, and the precipitates then analyzed using SDD-AGE.

MEFs = experiment: IFN-I and IL-6 cytokine secretion by ELISA in MEF culture supernatants; format: cell-based, mouse
Procedure: ELISA was used to measure cytokine concentration in supernatant from cultured MEFs and BMDCs, and in sera of SLE patients and healthy control subjects. For assays, samples were centrifuged and IFN-β and IL-6 levels were measured in triplicate using murine or human ELISA kits according to the manufacturer's instructions. (PBL Biosciences). The fold change in IFN-I or IL-6 cells was calculated by directly comparing mock versus virus or chemical inducer of ROS.

Molecule | level of phosphorylated Drp1 at mitochondria with MitoQ pre-treatment (Drp1; same cells pre-treated with MitoQ, versus 5′-ppp-RNA or GOx alone (FIG. 14A-B)) | decrease in MAVS oligomers (MAVS [1]; MEFs pre-treated with 100 μM MitoQ, then GOx, oligomer/monomer ratio by densitometry (FIG. 3B)) [%] | decrease in MAVS oligomerization (MAVS [1]; MEFs pre-treated with 100 μM MitoQ, then SINV infection, densitometry (FIG. 3B)) [%] | MAVS oligomerization after pretreatment (MAVS [1]; MEFs pretreated (100 μM) before GOx or SINV (FIG. 3A)) | MAVS oligomerization induced by SLE plasma MAVS oligomers in isolated mitochondria (MAVS [2]; mitochondria pretreated with MitoQ (FIG. 6C, lane 4)) | IFN-I secretion with MitoQ (MEFs; MEF with or without MitoQ, GOx or SINV (FIG. 3D)) | level of phosphorylated Drp1 at mitochondria after MAVS activation (Drp1; 5′-ppp-RNA 1 μg/ml or GOx (FIG. 14A-B)) | induction of MAVS oligomerization without viral infection (MAVS [1]; MEFs, substance alone (MitoPQ 1 to 10 nM, FIG. 2H; GOx, FIG. 2A)) | induction of MAVS oligomerization in purified mitochondria (MAVS [2]; GOx treatment, positive control (FIG. 6C, lane 2)) | IFN-I secretion induced by the substance (MEFs; MAVS-WT MEFs, not observed in MAVS-KO (FIG. 2E, 2J)) | IL-6 secretion induced by the substance (MEFs; MAVS-WT MEFs, not observed in MAVS-KO (FIG. 2F, 2K))
COC1=C(OC)C(=O)C(CCCCCCCCCC[P+](c2ccccc2)(c2ccccc2)c2ccccc2)=C(C)C1=O.CS(=O)(=O)[O-] [MitoQ, [10-(4,5-Dimethoxy-2-methyl-3,6-dioxo-1,4-cyclohexadien-1-yl)decyl](triphenyl)phosphonium methanesulfonate] | higher levels | ≥ 80 | ~40 | reduced MAVS oligomerization | significantly decreased | reduced IFN-I secretion |  |  |  |  | 
glucose oxidase [GOx] |  |  |  |  |  |  | lower levels of phosphorylated Drp1 at mitochondria | sufficient to induce MAVS oligomerization | induced MAVS oligomerization | increased secretion | increased secretion
